One test concerns U-87MG cells. Put plainly: Cell death by propidium iodide (PI) staining and flow cytometry, U-87MG. In kind it is cell-based, human. As to conditions: 6 h at 37°C, serum-free medium, means ± SD (n=3), Fig 1H, read-out: IC50 for inducing cell death. From the text: Figure 1 VDAC1-based peptides induce dramatic cell death of several brain tumor-derived cell lines but to lesser extent in primary brain cells A. IHC staining of VDAC1 of human normal brain (n=13) or glioblastoma (n=41) in tissue array slides (Biomax), as described in Materials and methods available online in Supplemental information. Percentages of sections stained at the intensity indicated are shown. […] The VDAC1-derived sequences Δ(1-14)N-terminus and LP4 are in green and pink, respectively. The cell-penetrating peptides Antp and Tf are in orange and blue, respectively. The loop shape of LP4 stabilized by a tryptophan zipper is in purple. The amino acids of Δ(1-14)N-terminus, LP4 and Antp are in the D configuration. […] Cells were harvested, washed twice with PBS and cell death was analyzed by propidium iodide (PI) staining and flow cytometry. […] Cells were harvested, washed twice with PBS and cell death was analyzed by PI staining and flow cytometry. […]
Sections were also hematoxylin-stained and visualized by microscopy. […] Quantitative analysis of immunoblots is shown (n=2-4). […] E. Quantitative analysis of immunoblots. […]
[…] The cells were then trypsinized, centrifuged (1500xg, 5 min), washed with PBS and analyzed for cell death using propidium iodide (PI) staining and flow cytometer (Beckton-Dickinson, San Jose, CA) and BD CellQuest Pro software. […]

Test [1] deals with mice bearing U-87MG intracranial xenografts. Put plainly: Survival (Kaplan-Meier) in U-87MG intracranial xenograft. In kind it is in vivo, human U-87MG in nude mice. As to conditions: 10 mg/kg i.v., treatment ended day 46 post-inoculation. As for the experimental part: B. U-87MG cells (2×10^5) were incubated for 12 h with the indicated concentrations of DMSO, Retro-Tf-D-LP4 peptide (Pep), or Retro-Tf-D-LP4 encapsulated in PLGA nanoparticles (PLGA-Pep). Samples of Retro-Tf-D-LP4 encapsulated in PLGA nanoparticles were centrifuged (15000g, 5 min) to separate the supernatant (Sup), containing free peptide, and the pellet, containing encapsulated Retro-Tf-D-LP4 peptide. Cell death was analyzed by PI staining and FACS analysis. C. Graphical representation of the orthotopic animal experiment. D. MRI imaging of brains 29 days post-intravenal treatment start with DMSO (1.05%), Retro-Tf-D-LP4 (10 mg/kg) encapsulated in PLGA nanoparticles or Tf-D-Retro-LP4 peptide (10 mg/Kg), as described in Materials and Methods available online in Supplemental information. E. Calculated tumor volumes after 20 (dark grey bars) and 29 (light grey bars) days post-treatment start. Results = mean ± SE (n = 6) (* p<0.05, *** p<0.001). F. Kaplan-Meier survival curves showing statistically significant differences in survival curves between the PBS/DMSO and Retro-Tf-D-LP4 treated mice. […]
For the intracranial-orthotopic xenograft mouse model, U-87MG cells (8×10^4) were engrafted into a nude mouse brain using a stereotactic device. […] Tumor volume was analyzed using VivoQuant 2.10 software.
In general terms: A xenograft is tissue or cells of one species grown in another, often human tumour cells in immunodeficient mice.

A further test concerns G7 stem cells. Put plainly: Apoptosis by FITC-Annexin V/PI staining and flow cytometry, G7. The format is cell-based, GBM patient. As to conditions: 3 h at 37°C, Fig 6G-H. As for the experimental part:
Sections were also hematoxylin-stained and visualized by microscopy. B. Tissue lysates obtained from controls and several TF-D-LP4-TTs were immunoblotted for Nestin, Sox2, NGFR, CD133, and Klf4. C. Quantitative analysis of immunoblots is shown (n=2-4). D. Immunoblot analysis of, Klf4, Sox2, Nestin and Musashi expression in U-87MG and G7 cell lines, using specific antibodies. E. Quantitative analysis of immunoblots. […] G. G7 (·) and U-87MG cells (○) (2×10^5) were incubated for 3 h with the DMSO (0.15%) or with the indicated concentration of Retro-Tf-D-LP4 peptide in serum-free growth medium at 37°C and then subjected to FITC-Annexin V/PI staining and flow cytometry analysis. H. Representative FACS analysis of DMSO- (left) and 5 μM of Retro-Tf-D-LP4- (right) treated G7 or U-87MG cells.
Cells (6×10^5 /ml) were incubated in 500 μl serum-free medium with the peptide of interest for 6 h at 37°C in the presence of 5% CO2. The cells were then trypsinized, centrifuged (1500xg, 5 min), washed with PBS and analyzed for cell death using propidium iodide (PI) staining and flow cytometer (Beckton-Dickinson, San Jose, CA) and BD CellQuest Pro software. Apoptotic cell death was also analyzed by PI and annexin V-FITC staining, and by acridine orange and ethidium bromide staining and light microscopy (Olympus LX2-KSP).
In general terms: In flow cytometry, cells or beads pass a laser one at a time.

Molecules are shown by their SMILES. Non-standard residues stand in square brackets, D forms with d. Residues, ends and D or L forms follow the SMILES beside them.

The record followed here is article PMC5458211, “Mitochondrial VDAC1-based peptides: Attacking oncogenic properties in glioblastoma” (Oncotarget, 2017).

By IC50 is commonly meant the midpoint of a concentration-inhibition curve. In the case of `CC[C@@H](C)[C@@H](NC(=O)[C@@H](CCCCN)NC(=O)[C@H](NC(=O)[C@@H](CCC(N)=O)NC(=O)[C@@H](CCCNC(=N)N)NC(=O)[C@@H](CC(C)C)NC(=O)CNC(=O)[C@@H](Cc1ccccc1)NC(=O)CNC(=O)[C@@H](Cc1ccc(O)cc1)NC(=O)CNC(=O)[C@@H](CCCCN)NC(=O)[C@H](NC(=O)[C@@H](Cc1ccccc1)NC(=O)[C@H](NC(=O)[C@@H](CC(=O)O)NC(=O)[C@H](N)CCCNC(=N)N)C(C)C)[C@H](C)O)[C@H](C)CC)C(=O)N[C@H](Cc1c[nH]c2ccccc12)C(=O)N[C@H](Cc1ccccc1)C(=O)N[C@H](CCC(N)=O)C(=O)N[C@H](CC(N)=O)C(=O)N[C@H](CCCNC(=N)N)C(=O)N[C@H](CCCNC(=N)N)C(=O)N[C@H](CCSC)C(=O)N[C@H](CCCCN)C(=O)N[C@H](Cc1c[nH]c2ccccc12)C(=O)N[C@H](CCCCN)C(=O)N[C@H](CCCCN)C(=O)O` [D-ΔN-Ter-Antp] (H-[dR][dD][dV][dF][dT][dK]G[dY]G[dF]G[dL][dR][dQ][dI][dK][dI][dW][dF][dQ][dN][dR][dR][dM][dK][dW][dK][dK]-OH; N-terminus and C-terminus assumed), the IC50 in the test on U-87MG cells was determined as 3.2 ± 0.6 µM.

Turning to `CC[C@H](C)[C@H](NC(=O)[C@H](Cc1ccc(O)cc1)NC(=O)[C@@H]1CCCN1C(=O)[C@H](CCCNC(=N)N)NC(=O)[C@H](Cc1c[nH]cn1)NC(=O)[C@H](CO)NC(=O)[C@H](Cc1c[nH]c2ccccc12)NC(=O)[C@@H](NC(=O)[C@H](Cc1c[nH]c2ccccc12)NC(=O)[C@H](CCC(=O)O)NC(=O)[C@@H](CCCCN)NC(=O)[C@@H](CCCCN)NC(=O)[C@@H](CC(C)C)NC(=O)[C@@H](CCC(=O)O)NC(=O)[C@H](NC(=O)[C@@H](C)NC(=O)[C@H](NC(=O)[C@@H](CC(N)=O)NC(=O)[C@@H](CC(C)C)NC(=O)[C@@H](C)NC(=O)[C@@H](Cc1c[nH]c2ccccc12)NC(=O)[C@H](NC(=O)[C@@H](C)NC(=O)CNC(=O)[C@@H](CC(N)=O)NC(=O)[C@@H](CO)NC(=O)[C@@H](CC(N)=O)NC(=O)[C@H](CCCCN)NC(=O)[C@H](Cc1c[nH]c2ccccc12)NC(=O)[C@@H](NC(=O)[C@H](Cc1c[nH]c2ccccc12)NC(=O)[C@@H](N)CCCCN)[C@@H](C)O)[C@H](C)O)C(C)C)[C@H](C)O)[C@@H](C)O)C(=O)N[C@@H](C)C(=O)N[C@@H](Cc1c[nH]cn1)C(=O)O` [Retro-Tf-D-LP4], the “prolongation of survival relative to untreated mice” value in test [1] is recorded as “over 60 days”. The “mice with prolonged survival” value in test [1] (followed another 46 days, untreated all died by day 32) amounted to 40%. For the same molecule, the “apoptosis of G7 stem cells” value with G7 stem cells is “induces apoptosis”.
